One data set has as its target T1, TYK2-JH2 domain (Homo sapiens, UniProt P29597).
T1 construct: IC50 on JH2 domain activity (nM)
Put plainly: Binding activity test for JH2 domain of TYK2 (Tb-antibody/tracer FRET). As to the method: Binding Activity Test for […] Domain of JAK1 and TYK2 The compounds are prepared in DMSO for 200× top dose, then serial dilute it with 27-fold for 3 more points. Add 8 μL/well in echo source plate, echo will add 75 nL/well with 3-fold serial dilution for 11 points in assay plate. 75 nL DMSO for high control and low control. […] For low control, add 5 μL/well assay buffer. And then spin down at 1000 rpm and centrifuge for 30 seconds. After enzyme system prepared, add 5 μL of Tb-antibody solution into each wells of assay plate. Spin down at 1000 rpm and centrifuge for 30 sec. After Tb-antibody added, also add 5 μL of tracer into the assay plate. Spin down at 1000 rpm and centrifuge for 30 sec. Incubate for 60 mins at 25° C. firstly and then continue to incubate the plate at 4° C. overnight. Read by envision in FRET mode. The Luminescence value was recorded by a multi-label reader Envision (PerkinElmer).

In data set [1] the target is T2, Ba/F3-FL-TYK2-P760L cells (Homo sapiens, UniProt P29597, P760L, cells depend on it).
T2 construct: BaF3-FL-T2P760L (nM)
T2 sequence (P29597 whole entry P760L): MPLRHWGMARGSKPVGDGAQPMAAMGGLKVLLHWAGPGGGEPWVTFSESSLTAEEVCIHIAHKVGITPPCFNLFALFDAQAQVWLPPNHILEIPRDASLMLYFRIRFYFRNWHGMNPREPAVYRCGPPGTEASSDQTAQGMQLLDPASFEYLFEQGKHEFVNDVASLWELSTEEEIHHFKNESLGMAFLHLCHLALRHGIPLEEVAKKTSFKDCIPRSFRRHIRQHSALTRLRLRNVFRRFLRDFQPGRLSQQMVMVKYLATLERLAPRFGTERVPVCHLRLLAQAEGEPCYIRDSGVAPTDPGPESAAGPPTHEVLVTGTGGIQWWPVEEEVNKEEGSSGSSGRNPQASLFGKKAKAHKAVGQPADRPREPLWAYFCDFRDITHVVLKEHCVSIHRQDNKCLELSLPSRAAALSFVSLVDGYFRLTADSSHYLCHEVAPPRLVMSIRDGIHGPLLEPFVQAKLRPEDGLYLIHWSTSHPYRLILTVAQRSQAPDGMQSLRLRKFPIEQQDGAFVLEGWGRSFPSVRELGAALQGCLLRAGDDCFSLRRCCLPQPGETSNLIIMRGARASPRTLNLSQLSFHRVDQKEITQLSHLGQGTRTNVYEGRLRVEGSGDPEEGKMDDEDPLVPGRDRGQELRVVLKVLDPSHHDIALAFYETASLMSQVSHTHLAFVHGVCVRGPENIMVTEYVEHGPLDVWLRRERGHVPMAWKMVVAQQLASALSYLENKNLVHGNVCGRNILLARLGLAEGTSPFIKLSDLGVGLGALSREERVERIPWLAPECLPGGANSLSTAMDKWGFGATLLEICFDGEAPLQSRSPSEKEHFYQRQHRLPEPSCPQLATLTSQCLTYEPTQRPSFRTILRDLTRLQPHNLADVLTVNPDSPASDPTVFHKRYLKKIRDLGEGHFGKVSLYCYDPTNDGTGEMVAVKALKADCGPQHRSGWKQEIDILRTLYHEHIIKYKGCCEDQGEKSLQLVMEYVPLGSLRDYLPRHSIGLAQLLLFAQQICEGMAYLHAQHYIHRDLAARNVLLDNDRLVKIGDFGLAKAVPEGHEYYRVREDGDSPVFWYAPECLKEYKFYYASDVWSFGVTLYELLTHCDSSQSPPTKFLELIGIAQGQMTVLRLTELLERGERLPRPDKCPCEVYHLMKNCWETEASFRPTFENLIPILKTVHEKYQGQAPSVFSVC
Put plainly: Anti-proliferative assay, Ba/F3-FL-TYK2-P760L cells (Cell-Titer Glo). The conditions noted are these: 72 h, read-out: BaF3-FL-T2P760L IC50. The format is cell-based. An outline of the steps: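 Ba/F3 cells made IL-3-independent by TEL-fused or full-length mutant JAK-family kinases, seeded at 2000/well and dosed after 24 h with 9 three-fold dilutions topping at 20 μM. Viability after 72 h at 37 °C, 5% CO2 by Cell-Titer Glo ATP luminescence.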

A short description of data set [2]: Microsomal metabolic stability assay. Type of data set: in vitro ADME. The conditions noted are these: pH 7.4, 0.5 mg/mL protein, 1 μM compound. In outline: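 Test article at 1 μM with 0.5 mg/mL microsomal protein and 2 mM NADPH, in 100 mM potassium phosphate pH 7.4 with 1.0 mM EDTA at 37 °C. Sampled at 0–45 min and quantified by LC/MS/MS. T1/2 from the slope of ln % remaining vs time.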

Where [3] appears, read: dog liver microsomes, read-out: Dog LM Clint.
The mark [4] stands for this setting: dog liver microsomes, read-out: Dog LM T½.
Where [5] appears, read: human liver microsomes, read-out: Human LM Clint.
Setting [6] is: human liver microsomes, read-out: Human LM T½.
Setting [7] is: rat liver microsomes, read-out: Rat LM Clint.
Setting [8] is: rat liver microsomes, read-out: Rat LM T½.

Where two headings read alike, the source gives them in different places.

As usually defined, the IC50 is the midpoint of a concentration-inhibition curve. Lower therefore signals greater potency.

T1 sequence (P29597 589-875 limits assumed): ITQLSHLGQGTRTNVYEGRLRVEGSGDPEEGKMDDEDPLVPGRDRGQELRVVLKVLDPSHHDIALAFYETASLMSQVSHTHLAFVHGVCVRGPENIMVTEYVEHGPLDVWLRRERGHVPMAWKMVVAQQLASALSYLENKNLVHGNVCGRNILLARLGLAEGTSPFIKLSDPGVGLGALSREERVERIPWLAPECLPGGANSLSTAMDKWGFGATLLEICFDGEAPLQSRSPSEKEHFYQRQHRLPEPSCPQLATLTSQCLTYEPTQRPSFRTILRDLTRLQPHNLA

The compound `[2H]C([2H])([2H])NC(=O)c1cnc(Nc2ccn(C)n2)cc1Nc1ccc2cnn(C([2H])([2H])[2H])c2c1OC` [Example 154, 4-((7-Methoxy-1-(methyl-d3)-1H-indazol-6-yl)amino)-N-(methyl-d3)-6-((1-methyl-1H-pyrazol-3-yl)amino)nicotinamide] registered an IC50 on TYK2-JH2 domain of 1.19 nM. Besides, the GI50 in data set [1] was 145 nM. Further, the microsomal CLint at 1 μM amounted to 16.8 µL/min/mg in data set [2] (setting [3]), 31.6 µL/min/mg in data set [2] (setting [5]) and 38.9 µL/min/mg in data set [2] (setting [7]). Besides, the half-life at 1 μM in data set [2] (setting [4]) amounted to 82.5 min; in data set [2] (setting [6]), 43.9 min; in data set [2] (setting [8]), 35.7 min.
With `[2H]C([2H])([2H])NC(=O)c1cnc(NC(=O)C2CC2)cc1Nc1ncn2ncc(CC)c2c1OC` [Example 280, 6-(Cyclopropanecarboxamido)-4-((3-ethyl-4-methoxypyrazolo[1,5-c]pyrimidin-5-yl)amino)-N-(methyl-d3)nicotinamide], on TYK2-JH2 domain, the IC50 was determined as 0.18 nM. Further, the GI50 in data set [1] was 40.2 nM.
Compound `[2H]C([2H])([2H])NC(=O)c1cnc(NC(=O)C2CC2)cc1Nc1cnc2cnn(CC)c2c1OC` [Example 265, 6-(Cyclopropanecarboxamido)-4-((1-ethyl-7-methoxy-1H-pyrazolo[4,3-b]pyridin-6-yl)amino)-N-(methyl-d3)nicotinamide] came in with an IC50 at TYK2-JH2 domain of 69.2 nM. Further, the GI50 in data set [1] is > 5000 nM.
The corresponding values for `[2H]C([2H])([2H])NC(=O)c1cnc(NC(=O)C2CC2)cc1Nc1ccc2c(c(CC)nn2C)c1OC` [Example 150, 6-(Cyclopropanecarboxamido)-4-((3-ethyl-4-methoxy-1-methyl-1H-indazol-5-yl)amino)-N-(methyl-d3)nicotinamide] are 1.87 nM and 231 nM.
Turning to `[2H]C([2H])([2H])NC(=O)c1cnc(NC(=O)C2CC2)cc1Nc1cn(C2CC2)c2ncn(CC)c(=O)c12` [Example 211], the IC50 on TYK2-JH2 domain came out at 0.71 nM. In addition, the GI50 in data set [1] amounted to 174 nM.
Consider `[2H]C([2H])([2H])NC(=O)c1nnc2cc1Nc1cc(cc(-c3ncn(C)n3)c1OC)COCc1cccc(n1)N2` [Example 68, 10-Methoxy-N-(methyl-d3)-11-(1-methyl-1H-1,2,4-triazol-3-yl)-15-oxa-2,4,5,8,21-pentaazatetracyclo[15.3.1.1^{3,7}.1^{9,13}]tricosa-1(21),3,5,7(23),9(22),10,12,17,19-nonaene-6-carboxamide], for which the IC50 on TYK2-JH2 domain was 0.4 nM. For the same compound, the GI50 in data set [1] was determined as 42.1 nM. In addition, the microsomal CLint at 1 μM in data set [2] (setting [3]) came to 11.4 µL/min/mg; in data set [2] (setting [5]), 6.45 µL/min/mg; in data set [2] (setting [7]) it was 47.1 µL/min/mg. Further, the half-life at 1 μM was 121 min in data set [2] (setting [4]), 215 min in data set [2] (setting [6]) and 29.4 min in data set [2] (setting [8]).
As to `[2H]C([2H])([2H])NC(=O)c1cnc(NC(=O)C2CC2)cc1Nc1ncn2ncc(C)c2c1OC` [Example 279, 6-(Cyclopropanecarboxamido)-4-((4-methoxy-3-methylpyrazolo[1,5-c]pyrimidin-5-yl)amino)-N-(methyl-d3)nicotinamide], the IC50 on TYK2-JH2 domain came to 0.33 nM. Besides, the GI50 in data set [1] turned out to be 70.1 nM.
`[2H]C([2H])([2H])NC(=O)c1cnc(NC(=O)C2CC2)cc1Nc1ccc2nn(C)c(CC)c2c1OC` [Example 232, 6-(Cyclopropanecarboxamido)-4-((3-ethyl-4-methoxy-2-methyl-2H-indazol-5-yl)amino)-N-(methyl-d3)nicotinamide] gave an IC50 at TYK2-JH2 domain of 1.58 nM. Also, the GI50 in data set [1] amounted to 1700 nM.
On to `[2H]C([2H])([2H])NC(=O)c1cnc(NC(=O)C2CC2)nc1Nc1ccc2cnn(CC)c2c1OC` [Example 135, 2-(Cyclopropanecarboxamido)-4-((1-ethyl-7-methoxy-1H-indazol-6-yl)amino)-N-(methyl-d3)pyrimidine-5-carboxamide], for which, on TYK2-JH2 domain, the IC50 came out at 1.46 nM. In addition, the GI50 in data set [1] turned out to be 128 nM.
The corresponding values for `CCn1ncc2ccc(Nc3cc(NC(=O)C4CC4)ncc3C(=O)OC)c(OC(F)(F)F)c21` [Example 148, Methyl 6-(cyclopropanecarboxamido)-4-((1-ethyl-7-(trifluoromethoxy)-1H-indazol-6-yl)amino)nicotinate] are > 298 nM and 242 nM.
The corresponding values for `[2H]C([2H])([2H])NC(=O)c1cnc(NC(=O)C(F)(F)F)cc1Nc1ccc2cnn(CC)c2c1OC` [Example 271, 4-((1-Ethyl-7-methoxy-1H-indazol-6-yl)amino)-N-(methyl-d3)-6-(2,2,2-trifluoroacetamido)nicotinamide] are 25.6 nM and 2610 nM.
As to `COC(=O)c1cnc(NC(=O)C2CC2)cc1Nc1cn(C)c2ccn(C)c(=O)c12` [Example 116, Methyl 6-(cyclopropanecarboxamido)-4-((1,5-dimethyl-4-oxo-4,5-dihydro-1H-pyrrolo[3,2-c]pyridin-3-yl)amino)nicotinate], the IC50 on TYK2-JH2 domain was found to be 3.35 nM. Also, the GI50 in data set [1] is 102 nM.
The corresponding values for `[2H]C([2H])([2H])NC(=O)c1cnc(NC(=O)C2CC2)cc1Nc1cn(C)c2ccn(C(C)C(F)(F)F)c(=O)c12` (single isomer, unassigned) [Example 190A, (R*)-6-(Cyclopropanecarboxamido)-N-(methyl-d3)-4-((1-methyl-4-oxo-5-(1,1,1-trifluoropropan-2-yl)-4,5-dihydro-1H-pyrrolo[3,2-c]pyridin-3-yl)amino)nicotinamide] are 0.622 nM and 113 nM.
The corresponding values for `[2H]C([2H])([2H])NC(=O)c1cnc(NC(=O)C2CC2)cc1Nc1ccn2cnc(CC)c2c1OC` [Example 57, 6-(Cyclopropanecarboxamido)-4-((1-ethyl-8-methoxyimidazo[1,5-a]pyridin-7-yl)amino)-N-(methyl-d3)nicotinamide] are 5.21 nM and > 5000 nM.
The corresponding values for `[2H]C([2H])([2H])NC(=O)c1nnc(NC(=O)C2CC2)cc1Nc1ccc2cnn(CC)c2c1OC` [Example 144, 6-(Cyclopropanecarboxamido)-4-((1-ethyl-7-methoxy-1H-indazol-6-yl)amino)-N-(methyl-d3)pyridazine-3-carboxamide] are 1.29 nM and 344 nM.
For `[2H]C([2H])([2H])NC(=O)c1cnc(NC(=O)C2CC2)cc1Nc1cn(C)c2ncn(C(C)C(F)(F)F)c(=O)c12` (stereo not drawn) [Example 217, 6-(Cyclopropanecarboxamido)-N-(methyl-d3)-4-((7-methyl-4-oxo-3-(1,1,1-trifluoropropan-2-yl)-4,7-dihydro-3H-pyrrolo[2,3-d]pyrimidin-5-yl)amino)nicotinamide], the IC50 at TYK2-JH2 domain came to 1.31 nM. Also, the GI50 in data set [1] was found to be 205 nM.
At TYK2-JH2 domain, `CCn1ncc2ccc(Nc3cc(NC(=O)C4CC4)ncc3Cl)c(OC)c21` [Example 272, N-(5-chloro-4-((1-ethyl-7-methoxy-1H-indazol-6-yl)amino)pyridin-2-yl)cyclopropanecarboxamide] displayed an IC50 of 138 nM. The GI50 in data set [1] was determined as 4760 nM.
The corresponding values for `[2H]C([2H])([2H])NC(=O)c1cnc(NC(=O)C2CC2)cc1Nc1ncn2ncc(C#N)c2c1OC` [Example 282, 4-((3-Cyano-4-methoxypyrazolo[1,5-c]pyrimidin-5-yl)amino)-6-(cyclopropanecarboxamido)-N-(methyl-d3)nicotinamide] are 0.27 nM and 75.2 nM.
The corresponding values for `[2H]C([2H])([2H])NC(=O)c1nnc(NC(=O)C2CC2)cc1Nc1nn(CC)c2ccn(CC(F)(F)F)c(=O)c12` [Example 218, 6-(Cyclopropanecarboxamido)-4-((1-ethyl-4-oxo-5-(2,2,2-trifluoroethyl)-4,5-dihydro-1H-pyrazolo[4,3-c]pyridin-3-yl)amino)-N-(methyl-d3)pyridazine-3-carboxamide] are 0.343 nM and 68.6 nM.
The corresponding values for `[2H]C([2H])([2H])NC(=O)c1cnc(NC(=O)C2CC2)cc1Nc1ccc2nc(C)n(CC)c2c1OC` [Example 168, 6-(Cyclopropanecarboxamido)-4-((1-ethyl-7-methoxy-2-methyl-1H-benzo[d]imidazol-6-yl)amino)-N-(methyl-d3)nicotinamide] are 2.15 nM and 728 nM.
On TYK2-JH2 domain, `[2H]C([2H])([2H])NC(=O)c1cnc(NC(=O)C2CC2)cc1Nc1csc2c(Cl)cn(CC)c(=O)c12` [Example 173, 4-((7-Chloro-5-ethyl-4-oxo-4,5-dihydrothieno[3,2-c]pyridin-3-yl)amino)-6-(cyclopropanecarboxamido)-N-(methyl-d3)nicotinamide] registered an IC50 of 0.817 nM. Also, the GI50 in data set [1] was 86.5 nM.

(Values after patent US20250115597A1, “TYK2 INHIBITORS AND COMPOSITIONS AND METHODS THEREOF” (LYNK PHARMACEUTICALS CO. LTD., priority 2021, published 2025).)
